Laboratory results: US11591341B2 (ALIGOS THERAPEUTICS, INC., priority 2019, dated 2023)

Test system: HBV
Assay: HBV-DNA Antiviral Assay Using HepG2.117 Cells (intracellular HBV DNA by qPCR)
Assay type: cell-based, hepatitis B virus (genotype D)
Details: Hepatitis B virus, HepG2.117
Method in brief: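 Endpoint: qPCR copy number of intracellular HBV DNA after 3-day compound exposure, with inhibition set relative to the 2% DMSO control. The cells were doxycycline-free HepG2.117 carrying a Tet-off genotype D genome, dosed at nine 4-fold dilutions. A duplicate plate gave ATP-based viability (CC50).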

SMILES: O=C(NCc1ccccc1-c1ncco1)c1c2n(c(=O)n1-c1ccc(OCC(F)(F)F)cc1)CCN(C(=O)c1ccc(Br)c(Cl)c1)C2 [Example 375, 7-(4-bromo-3-chloro-benzoyl)-N-[(2-oxazol-2-ylphenyl)methyl]-3-oxo-2-[4-(2,2,2-trifluoroethoxy)phenyl]-6,8-dihydro-5H-imidazo[1,5-a]pyrazine-1-carboxamide]
- EC50: 100 to 500 nM

SMILES: O=C(NCc1ccccc1-c1ncccn1)c1c2n(c(=O)n1-c1ccc(OC3CC3)cc1)CCN(C(=O)c1ccc(Br)c(Cl)c1)C2 [Example 376, 7-(4-bromo-3-chloro-benzoyl)-2-[4-(cyclopropoxy)phenyl]-3-oxo-N-[(2-pyrimidin-2-ylphenyl)methyl]-6,8-dihydro-5H-imidazo[1,5-a]pyrazine-1-carboxamide]
- EC50: < 100 nM

SMILES: O=C(NCc1ccccc1-c1ncccn1)c1c2n(c(=O)n1-c1ccc(OCC(F)(F)F)cc1)CCN(C(=O)c1ccc(Br)c(Cl)c1)C2 [Example 377, 7-(4-bromo-3-chloro-benzoyl)-3-oxo-N-[(2-pyrimidin-2-ylphenyl)methyl]-2-[4-(2,2,2-trifluoroethoxy)phenyl]-6,8-dihydro-5H-imidazo[1,5-a]pyrazine-1-carboxamide]
- EC50: < 100 nM

SMILES: O=C(NCc1ccccc1-c1cocn1)c1c2n(c(=O)n1-c1ccc(OCC(F)(F)F)cc1)CCN(C(=O)c1ccc(Br)c(Cl)c1)C2 [Example 386, 7-(4-bromo-3-chloro-benzoyl)-N-[(2-oxazol-4-ylphenyl)methyl]-3-oxo-2-[4-(2,2,2-trifluoroethoxy)phenyl]-6,8-dihydro-5H-imidazo[1,5-a]pyrazine-1-carboxamide]
- EC50: 100 to 500 nM

SMILES: O=C(NCc1ccccc1-c1cccnn1)c1c2n(c(=O)n1-c1ccc(OC3CC3)cc1)CCN(C(=O)c1ccc(Br)c(Cl)c1)C2 [Example 387, 7-(4-bromo-3-chloro-benozyl)-2-[4-(cyclopropoxy)phenyl]-3-oxo-N-[(2-pyridazin-3-ylphenyl)methyl]-6,8-dihydro-5H-imidazo[1,5-a]pyrazine-1-carboxamide]
- EC50: < 100 nM

SMILES: O=C(NCc1ccccc1-c1cccnn1)c1c2n(c(=O)n1-c1ccc(OCC(F)(F)F)cc1)CCN(C(=O)c1ccc(Br)c(Cl)c1)C2 [Example 388, 7-(4-bromo-3-chloro-benzoyl)-3-oxo-N-[(2-pyridazin-3-ylphenyl)methyl]-2-[4-(2,2,2-trifluoroethoxy)phenyl]-6,8-dihydro-5H-imidazo[1,5-a]pyrazine-1-carboxamide]
- EC50: < 100 nM

SMILES: O=C(NCc1ccccc1)c1c2n(c(=O)n1-c1ccc3nonc3c1)CCN(C(=O)c1ccc(Br)c(Cl)c1)C2 [Example 389, 2-(2,1,3-benzoxadiazol-5-yl)-N-benzyl-7-(4-bromo-3-chloro-benzoyl)-3-oxo-6,8-dihydro-5H-imidazo[1,5-a]pyrazine-1-carboxamide]
- EC50: 500 to 5000 nM

SMILES: O=C(NCc1ccccc1)c1c2n(c(=O)n1-c1ccc(N3CCC3)cc1)CCN(C(=O)c1ccc(Br)c(Cl)c1)C2 [Example 390, 2-[4-(azetidin-1-yl)phenyl]-N-benzyl-7-(4-bromo-3-chloro-benzoyl)-3-oxo-6,8-dihydro-5H-imidazo[1,5-a]pyrazine-1-carboxamide]
- EC50: 100 to 500 nM

SMILES: O=C(NCc1ccccc1)c1c2n(c(=O)n1-c1ccc(N3CC(F)(F)C3)cc1)CCN(C(=O)c1ccc(Br)c(Cl)c1)C2 [Example 391, N-benzyl-7-(4-bromo-3-chloro-benzoyl)-2-[4-(3,3-difluoroazetidin-1-yl)phenyl]-3-oxo-6,8-dihydro-5H-imidazo[1,5-a]pyrazine-1-carboxamide]
- EC50: 100 to 500 nM

SMILES: O=C(NCc1ccccc1)c1c2n(c(=O)n1-c1ccc(N3CCC(F)(F)C3)cc1)CCN(C(=O)c1ccc(Br)c(Cl)c1)C2 [Example 392, N-benzyl-7-(4-bromo-3-chloro-benzoyl)-2-[4-(3,3-difluoropyrrolidin-1-yl)phenyl]-3-oxo-6,8-dihydro-5H-imidazo[1,5-a]pyrazine-1-carboxamide]
- EC50: 100 to 500 nM

SMILES: CC(C)(Oc1ccc(-n2c(C(=O)NCc3ccccc3)c3n(c2=O)CCN(C(=O)c2ccc(Br)c(Cl)c2)C3)cc1)C(F)(F)F [Example 393, N-benzyl-7-(4-bromo-3-chloro-benzoyl)-3-oxo-2-[4-(2,2,2-trifluoro-1,1-dimethyl-ethoxy)phenyl]-6,8-dihydro-5H-imidazo[1,5-a]pyrazine-1-carboxamide]
- EC50: 500 to 5000 nM

SMILES: O=C(NCc1ccccc1)c1c2n(c(=O)n1-c1ccc(-n3cncn3)cc1)CCN(C(=O)c1ccc(Br)c(Cl)c1)C2 [Example 395, N-benzyl-7-(4-bromo-3-chloro-benzoyl)-3-oxo-2-[4-(1,2,4-triazol-1-yl)phenyl]-6,8-dihydro-5H-imidazo[1,5-a]pyrazine-1-carboxamide]
- EC50: 500 to 5000 nM

SMILES: CC(C)(C)Oc1ccc(-n2c(C(=O)NCc3ccccc3)c3n(c2=O)CCN(C(=O)c2ccc(Br)c(Cl)c2)C3)cc1 [Example 396, N-benzyl-7-(4-bromo-3-chloro-benzoyl)-2-(4-tert-butoxyphenyl)-3-oxo-6,8-dihydro-5H-imidazo[1,5-a]pyrazine-1-carboxamide]
- EC50: 100 to 500 nM

SMILES: CC1(C)C(=O)Nc2ccc(-n3c(C(=O)NCc4ccccc4)c4n(c3=O)CCN(C(=O)c3ccc(Br)c(Cl)c3)C4)cc21 [Example 397, N-benzyl-7-(4-bromo-3-chloro-benozyl)-2-(3,3-dimethyl-2-oxo-indolin-5-yl)-3-oxo-6,8-dihydro-5H-imidazo[1,5-a]pyrazine-1-carboxamide]
- EC50: 500 to 5000 nM

SMILES: O=C(NCc1ccccc1-c1cocn1)c1c2n(c(=O)n1-c1ccc(OC3CC3)cc1)CCN(C(=O)c1ccc(Br)c(Cl)c1)C2 [Example 398, 7-(4-bromo-3-chloro-benzoyl)-2-[4-(cyclopropxy)phenyl]-N-[(2-oxazol-4-ylphenyl)methyl]-3-oxo-6,8-dihydro-5H-imidazo[1,5-a]pyrazine-1-carboxamide]
- EC50: < 100 nM

SMILES: Cn1cnc2c(CNC(=O)c3c4n(c(=O)n3-c3ccc(OC5CC5)cc3)CCN(C(=O)c3ccc(Br)c(Cl)c3)C4)cccc21 [Example 399, 7-(4-bromo-3-chloro-benzoyl)-2-[4-(cyclopropoxy)phenyl]-N-[(1-methylbenzimidazol-4-yl)methyl]-3-oxo-6,8-dihydro-5H-imidazo[1,5-a]pyrazine-1-carboxamide]
- EC50: 100 to 500 nM

SMILES: Cn1cnc2c(CNC(=O)c3c4n(c(=O)n3-c3ccc(OCC(F)(F)F)cc3)CCN(C(=O)c3ccc(Br)c(Cl)c3)C4)cccc21 [Example 400, 7-(4-bromo-3-chloro-benzoyl)-N-[(1-methylbenzimidazol-4-yl)methyl]-3-oxo-2-[4-(2,2,2-trifluoroethoxy)phenyl]-6,8-dihydro-5H-imidazo[1,5-a]pyrazine-1-carboxamide]
- EC50: 100 to 500 nM

SMILES: O=C(NCc1ccccc1-c1cnccn1)c1c2n(c(=O)n1-c1ccc(OC3CC3)cc1)CCN(C(=O)c1ccc(Br)c(Cl)c1)C2 [Example 401, 7-(4-bromo-3-chloro-benzoyl)-2-[4-(cyclopropoxy)phenyl]-3-oxo-N-[(2-pyrazin-2-ylphenyl)methyl]-6,8-dihydro-5H-imidazo[1,5-a]pyrazine-1-carboxamide]
- EC50: < 100 nM

SMILES: O=C(NCc1ccccc1-c1cnccn1)c1c2n(c(=O)n1-c1ccc(OCC(F)(F)F)cc1)CCN(C(=O)c1ccc(Br)c(Cl)c1)C2 [Example 402, 7-(4-bromo-3-chloro-benzoyl)-3-oxo-N-[(2-pyrazin-2-ylphenyl)methyl]-2-[4-(2,2,2-trifluoroethoxy)phenyl]-6,8-dihydro-5H-imidazo[1,5-a]pyrazine-1-carboxamide]
- EC50: < 100 nM

SMILES: O=C1CCc2cc(-n3c(C(=O)NCc4ccccc4)c4n(c3=O)CCN(C(=O)c3ccc(Br)c(Cl)c3)C4)ccc2N1 [Example 403, N-benzyl-7-(4-bromo-3-chloro-benzoyl)-3-oxo-2-(2-oxo-3,4-dihydro-1H-quinolin-6-yl)-6,8-dihydro-5H-imidazo[1,5-a]pyrazine-1-carboxamide]
- EC50: 500 to 5000 nM

SMILES: O=C1COc2cc(-n3c(C(=O)NCc4ccccc4)c4n(c3=O)CCN(C(=O)c3ccc(Br)c(Cl)c3)C4)ccc2N1 [Example 404, N-benzyl-7-(4-bromo-3-chloro-benzoyl)-3-oxo-2-(3-oxo-4H-1,4-benzoxazin-7-yl)-6,8-dihydro-5H-imidazo[1,5-a]pyrazine-1-carboxamide]
- EC50: 500 to 5000 nM

SMILES: CC(C)Oc1ccc(-n2c(C(=O)NCc3ccc(C(C)(C)O)cc3)c3n(c2=O)CCN(C(=O)c2ccc(Br)c(Cl)c2)C3)cc1 [Example 407, 7-(4-bromo-3-chloro-benzoyl)-N-[[4-(1-hydroxy-1-methyl-ethyl)phenyl]methyl]-2-(4-isopropoxyphenyl)-3-oxo-6,8-dihydro-5H-imidazo[1,5-a]pyrazine-1-carboxamide]
- EC50: < 100 nM

SMILES: O=C(NCc1ccccc1)c1c2n(c(=O)n1-c1ccc3cn[nH]c3c1)CCN(C(=O)c1ccc(Br)c(Cl)c1)C2 [Example 408, N-benzyl-7-(4-bromo-3-chloro-benzoyl)-2-(1H-indazol-6-yl)-3-oxo-6,8-dihydro-5H-imidazo[1,5-a]pyrazine-1-carboxamide]
- EC50: 100 to 500 nM

SMILES: CC1(C)CN(c2ccc(-n3c(C(=O)NCc4ccccc4)c4n(c3=O)CCN(C(=O)c3ccc(Br)c(Cl)c3)C4)cc2)CCO1 [Example 410, N-benzyl-7-(4-bromo-3-chloro-benzoyl)-2-[4-(2,2-dimethylmorpholin-4-yl)phenyl]-3-oxo-6,8-dihydro-5H-imidazo[1,5-a]pyrazine-1-carboxamide]
- EC50: 100 to 500 nM

SMILES: Cc1nc2c(CNC(=O)c3c4n(c(=O)n3-c3ccc(OCC(F)(F)F)cc3)CCN(C(=O)c3ccc(Br)c(Cl)c3)C4)cccc2o1 [Example 411, 7-(4-bromo-3-chloro-benzoyl)-N-[(2-methyl-1,3-benzoxazol-4-yl)methyl]-3-oxo-2-[4-(2,2,2-trifluoroethoxy)phenyl]-6,8-dihydro-5H-imidazo[1,5-a]pyrazine-1-carboxamide]
- EC50: 100 to 500 nM

SMILES: O=C(NCc1ccccc1)c1c2n(c(=O)n1-c1ccc(N3CCCC3=O)cc1)CCN(C(=O)c1ccc(Br)c(Cl)c1)C2 [Example 412, N-benzyl-7-(4-bromo-3-chloro-benzoyl)-3-oxo-2-[4-(2-oxopyrrolidin-1-yl)phenyl]-6,8-dihydro-5H-imidazo[1,5-a]pyrazine-1-carboxamide]
- EC50: 100 to 500 nM
